Like-named read-outs stand apart in the source and are kept apart here.
Legend:
[1] = biological target: T1, androgen receptor (CMV-hAR) in CV-1 cells (Homo sapiens, UniProt P10275); test: AR transactivation assay, antagonist mode (ARAF cells, ALP reporter, presence of 0.1 nM Mibolerone); format: cell-based; settings: for ARAF % ANTAGONIST: decrease in ALP activity in the presence of 0.1 nM Mibolerone
T1 construct: expressed in transfected cells
T1 sequence (P10275 1-920): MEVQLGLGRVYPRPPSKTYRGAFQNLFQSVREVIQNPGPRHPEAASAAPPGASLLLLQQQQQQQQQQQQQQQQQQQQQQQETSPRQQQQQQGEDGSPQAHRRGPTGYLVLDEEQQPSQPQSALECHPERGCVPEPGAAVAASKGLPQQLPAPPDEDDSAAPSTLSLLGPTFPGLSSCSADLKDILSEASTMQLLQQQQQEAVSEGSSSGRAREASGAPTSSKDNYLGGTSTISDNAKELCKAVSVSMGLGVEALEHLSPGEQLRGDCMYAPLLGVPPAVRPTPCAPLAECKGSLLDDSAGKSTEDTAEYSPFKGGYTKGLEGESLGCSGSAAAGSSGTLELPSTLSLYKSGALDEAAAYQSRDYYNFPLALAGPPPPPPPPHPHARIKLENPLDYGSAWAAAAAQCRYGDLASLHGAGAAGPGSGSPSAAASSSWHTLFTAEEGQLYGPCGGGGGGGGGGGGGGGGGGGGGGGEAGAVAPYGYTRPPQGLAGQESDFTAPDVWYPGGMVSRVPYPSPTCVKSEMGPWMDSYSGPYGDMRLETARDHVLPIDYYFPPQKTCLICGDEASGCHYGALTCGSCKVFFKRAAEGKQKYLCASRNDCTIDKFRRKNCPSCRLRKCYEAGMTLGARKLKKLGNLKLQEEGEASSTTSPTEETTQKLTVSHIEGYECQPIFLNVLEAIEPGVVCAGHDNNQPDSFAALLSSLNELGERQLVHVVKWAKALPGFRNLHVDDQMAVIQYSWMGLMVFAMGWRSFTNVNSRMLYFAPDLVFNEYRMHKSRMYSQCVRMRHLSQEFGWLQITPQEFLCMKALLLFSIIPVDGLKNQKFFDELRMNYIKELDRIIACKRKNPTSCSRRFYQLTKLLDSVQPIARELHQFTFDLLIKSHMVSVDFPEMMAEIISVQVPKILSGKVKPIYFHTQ
Experimental: (§1) The agonist and antagonist properties of compounds were determined using a cell-based system expressing stably integrated androgen receptor and an androgen responsive reporter gene. CV-1 cells (kidney fibroblasts) stably expressing CMV-hAR and alkaline phosphatase (ALP) driven by an MMTV promoter containing an androgen response element were cultured in Dulbecco's Modified Eagle Medium (DMEM), low glucose supplemented with 10% fetal bovin serum, 1% L-glutamine, and 0.7% Hygromycine B. The stably integrated cells (ARAF) were trypsinized and resuspended in Opti-MEM 1 supplemented with 2% fetal bovine serum, 1% L-Glutamine, 50 μg/ml Gentamicine and 1% Pen/Strep. The cells were counted in a Birch chamber and diluted to a concentration of 100 000 cells/ml. The cells were then seeded out in 384 plates, 5000 cells/well in 50 μl seeding media and incubated overnight in 37 C, 5% CO2.
(§2) The next day, the seeding medium was removed from the cells and 20 μl induction media (Opti-MEM 1 supplemented with 1% L-Glutamine, 50 μg/ml Gentamicine and 1% Pen/Strep)+/−0.1 nM Mibolerone was added to the wells. 10 μl of test compound diluted in induction media was then added to the wells. The cells were incubated 48 hr in 37 C, 5% CO2.
(§3) After 48 hr 5 μl of cell medium was added to white 384 plates with 100 μl of ALP substrate buffer. The plates were incubated in 37 C for 20 minutes followed by incubation at room temperature for 10 minutes before each well was read in a μBETA machine. Agonist activity was calculated from the alkaline phosphatase activity induced in the absence of Mibolerone and compared to standard activation curve generated by Mibolerone alone. Antagonist activity was calculated from the decrease in ALP activity in the presence of 0.1 nM Mibolerone. EC50 and IC50 values were calculated by using a non-linear four-parameter fit as described above.

[2] = biological target: T1, androgen receptor (CMV-hAR) in CV-1 cells; test: AR transactivation assay, agonist mode (ARAF cells, ALP reporter, absence of Mibolerone); format: cell-based; settings: for ARAF % AGONIST: ALP activity in absence of Mibolerone compared to standard activation curve of Mibolerone alone
Experimental: as §1, §2, §3

[3] = biological target: T2, Recombinant human androgen receptor (hAR) (Homo sapiens, UniProt P10275); test: AR competition binding assay (3H-mibolerone tracer)
T2 construct: made in house; host or cells: Sf9 insect cells
T2 sequence (P10275 1-920): T1 sequence (P10275 1-920)
Experimental: Recombinant human androgen receptor (hAR) was extracted from Sf9 insect cells with buffer containing 1 mM EDTA, 20 mM K2HPO4, 8.7% glycerol, 20 mM Na2MoO4 and 12 mM MTG at 5*10^7 cells/ml. The cell debris was removed by centrifugation and the supernatant aliquoted and stored at −70° C.
An aliquot of AR extract was thawed on ice prior to use and diluted to approximately 0.2 nM (1 to 30 dilution) in buffer (100 mM KnHmPO4 pH 7.0, 1 mM EDTA, 8.7% glycerol, 20 mM Na2MoO4 and 1 mM DTT). The test ligands were diluted in DMSO as a dilution series of 10 concentrations in duplicate, with 1:5 dilution between each concentration. Tritiated mibolerone (^3H-Mib) was used as tracer compound and diluted to 1.6 nM in 1 mM EDTA, 20 mM Na2MoO4, 8.7% glycerol and 1 mM DTT. To a 96-well polypropylene-plate 110 μl/well of 1.6 nM ^3H-Mib, 10 μl/well test substance and 110 μl/well diluted AR was added. The plates were covered and incubated at +4° C. over night. The plates were harvested on filters to separate bound ligand from unbound ligand with a Tomtec Harvester. A prewet buffer containing 20 mM Kn(PO4) pH 7.6, 1 mM EDTA, v/v 0.5% polyethyleneimine was used to equilibrate the filter before filtering the samples and washing the filters with 20 mM Kn(PO4) pH 7.6, 1 mM EDTA 8 times. The filters were allowed to dry for 1 hour at +65° C. A scintillating wax was melted upon the filter and the radioactivity retained on the filter was measured in a Wallac Microbeta scintillation counter.
The affinity to AR was evaluated by a non-linear four-parameter logisitic model: b=(bmax−bmin)/(1+(IC50/I)̂S)+bmin, where bmax=total concentration of binding sites, bmin=non-specific binding, I=added concentration of binding inhibitor, IC50=concentration of binding inhibitor at half-maximal binding and S=slope factor. Table: Antagonist and partial antagonist and binding activity of androgen receptor modulator compounds.

[4] = competition with 3H-Mib, hAR extract from Sf9 cells, +4° C. over night, read-out: AR_LT IC50
[5] = CV-1 cells stably expressing hAR and MMTV-ALP, presence of 0.1 nM Mibolerone, 48 hr, read-out: ARAF IC50
[6] = CV-1 cells stably expressing hAR and MMTV-ALP, absence of Mibolerone, 48 hr, read-out: ARAF EC50

## CC(C)(CO)Nc1ccc([N+](=O)[O-])c(C(F)(F)F)c1 [Example-1, 2-Methyl-2-(4-nitro-3-trifluoromethyl-phenylamino)-propan-1-ol]
[1]
  IC50: 2.1 nM
  ARAF % ANTAGONIST: 33.1%
[2]
  EC50: 26.8 nM
  ARAF % AGONIST: 51.7%
[3]; [4]
  IC50: 22.8 nM

## Cc1cc(NC(C)(C)CO)ccc1[N+](=O)[O-] [Example-5]
[1]; [5]
  IC50: 7.2 nM
[1]
  ARAF % ANTAGONIST: 61%
[2]
  ARAF % AGONIST: 29.3%
[2]; [6]
  EC50: 81.7 nM
[3]; [4]
  IC50: 38.1 nM

## Cc1nc(NC(C)(C)CO)ccc1[N+](=O)[O-] [Example-8, 2-Methyl-2-(6-methyl-5-nitro-pyridin-2-ylamino)-propan-1-ol]
[1]; [5]
  IC50: 22.3 nM
[1]
  ARAF % ANTAGONIST: 82.5%
[2]
  ARAF % AGONIST: 10.6%
[2]; [6]
  EC50: 374 nM
[3]; [4]
  IC50: 241 nM

## N#Cc1ccc(NC2(CO)CCCC2)cc1C(F)(F)F [Example-19, 4-(1-Hydroxymethyl-cyclopentylamino)-2-trifluoromethyl-benzonitrile]
[1]
  IC50: 22.4 nM
  ARAF % ANTAGONIST: 95.6%
[3]; [4]
  IC50: 130 nM

## CC(C)[C@@H](CO)Nc1ccc([N+](=O)[O-])c(C(F)(F)F)c1 [Example-30]
[1]
  IC50: 68.3 nM
  ARAF % ANTAGONIST: 88.7%
[2]
  EC50: 1070 nM
  ARAF % AGONIST: 7.3%
[3]; [4]
  IC50: 113 nM

## O=[N+]([O-])c1ccc(N[C@H](CO)CSCc2ccccc2)cc1C(F)(F)F [Example-41]
[1]; [5]
  IC50: 490 nM
[1]
  ARAF % ANTAGONIST: 71.7%
[3]; [4]
  IC50: 65.1 nM

## CCCC(CO)Nc1ccc([N+](=O)[O-])c(C(F)(F)F)c1 (centres unmarked) [Example-42]
[1]; [5]
  IC50: 493 nM
[1]
  ARAF % ANTAGONIST: 92%
[3]
  IC50: 486 nM

## CCCC[C@@H](CO)Nc1ccc([N+](=O)[O-])c(C)n1 [Example-60]
[1]; [5]
  IC50: 27.4 nM
[1]
  ARAF % ANTAGONIST: 79.3%
[2]
  ARAF % AGONIST: 9.3%
[2]; [6]
  EC50: 336 nM
[3]; [4]
  IC50: 68.3 nM

## CC[C@H](C)[C@@H](CO)Nc1ccc([N+](=O)[O-])c(C)n1 [Example-61]
[1]
  IC50: 68.3 nM
  ARAF % ANTAGONIST: 87.4%
[3]; [4]
  IC50: 89.3 nM

## Cc1nc(N[C@H](CO)CSCc2ccccc2)ccc1[N+](=O)[O-] [Example-65]
[1]; [5]
  IC50: 78 nM
[1]
  ARAF % ANTAGONIST: 89.2%
[2]
  ARAF % AGONIST: 7%
[2]; [6]
  EC50: 1870 nM
[3]; [4]
  IC50: 6.2 nM

## CCCC(CO)Nc1ccc([N+](=O)[O-])c(C)c1 (centres unmarked) [Example-78]
[1]; [5]
  IC50: 25.8 nM
[1]
  ARAF % ANTAGONIST: 65.4%
[2]
  ARAF % AGONIST: 25%
[2]; [6]
  EC50: 280 nM
[3]; [4]
  IC50: 54.5 nM

## Cc1cc(NCCNc2ccc([N+](=O)[O-])cn2)ccc1[N+](=O)[O-] [Example-86]
[1]; [5]
  IC50: 351 nM
[1]
  ARAF % ANTAGONIST: 100%
[3]; [4]
  IC50: 443 nM

## CCC[C@@H](CO)Nc1ccc([N+](=O)O)cc1 [Example-103, (S)-2-(4-Nitro-phenylamino)-pentan-1-ol]
[1]; [5]
  IC50: 136 nM
[1]
  ARAF % ANTAGONIST: 92.9%
[3]; [4]
  IC50: 98.7 nM

## CCC[C@@H](CO)Nc1ccc([N+](=O)[O-])cc1Br [Example-106, (S)-2-(2-Bromo-4-nitro-phenylamino)-pentan-1-ol]
[1]; [5]
  IC50: 241 nM
[1]
  ARAF % ANTAGONIST: 88.2%
[3]
  IC50: 170 nM

Reference: US20080058383A1 (priority 2003, published 2008)
